“Also recorded” adds a separate entry of the source.
Legend:
[1] = tested on: light chain/serine protease domain (SPD); assay: Binding of biotinylated peptides to captured recombinant FSAP light chain/SPD; design: species or system human; details: peptide 1 μM; triplicate wells (Fig 2E)
Protocol: Figure 2 NNKC9/41 interacts with the NTR of pro-FSAP: (A) To determine peptide binding to pro-FSAP, wells were coated with 2 μg/mL pro-FSAP and biotinylated NNKC9/41 and NNK11/189 and their respective scrambled controls were added in different concentration (0–5 μM). Peroxidase-labeled streptavidin was used to detect peptide binding. (B) Same procedure as in (A) except that different proteins were immobilized and biotinylated NNKC9/41 (0–30 μM) was added and its binding was measured. (C) Schematic structure of pro-FSAP with the heavy chain consisting of an NTR, three EGF domains, and a kringle domain, followed by the light chain harboring the serine protease domain (SPD). The binding domains of antibodies used in this study are indicated. (D) Recombinant complete heavy chain (heavy) and truncated heavy chain variants ΔNTR, ΔEGF1, ΔEGF2, ΔEGF3, and ΔKringle were expressed in bacteria and analyzed by sodium dodecyl sulfate poly(acrylamide) gel electrophoresis (SDS-PAGE) followed by Coomassie staining. […] Biotinylated NNKC9/41 or the scrambled control peptide was added at 1 μM and peptide binding was measured with peroxidase-linked streptavidin. […]
Wells were coated with anti-FSAP polyclonal antibodies (5 μg/mL). […] Subsequently, the plates were washed, and bound peptides were detected with peroxidase-coupled streptavidin. […]

pro-FSAP in WT/MI plasma = assay: Substrate turnover in WT/MI plasma; type: biochemical, human; details: WT/MI citrate plasma 1:12; 25 μM (Fig 6A)
Protocol: Figure 6 Pro-FSAP activation and clotting in plasma by NNKC9/41: (A) citrate plasma (1:12 dilution) from donors with WT/WT, WT/MI, and MI/MI genotypes and WT-FSAP-deficient plasma (FSAP-DP) were compared. Substrate turnover was monitored after addition of NNKC9/41 or the Ser–Ser linear peptide (25 μM each). Results are shown as mean + range of duplicate wells. (B) Pooled prothrombin-deficient citrated plasma (1:5 dilution) was recalcified with 10 mM CaCl2 and incubated with NNKC9/41 or scrambled control peptide (0–25 μM each) for 60 min at 37 °C in the presence or absence of the FSAP-inhibitory MA-FSAP-38C7 (5 μg/mL). Initiation of clotting was achieved by adding the tissue factor/phospholipid and prothrombin complex concentrate. Clotting time was measured as diluted prothrombin time (dPT) in seconds. Data are the mean of three independent experiments. The relative dPT in % of the untreated control is presented as mean ± standard error (SE) (*p <0.05, two-way analysis of variance (ANOVA) and Bonferroni post-test).
(§1) Human citrate plasma (0.38% w/v) or hirudin plasma (25 μg/mL Lepirudin) was obtained from five healthy donors. […] Hydrolysis of the fluorogenic substrates was measured using a Synergy HI plate reader with excitation at 320 nm and emission at 460 nm at 37 °C for 60 min. The maximal velocity was calculated from the linear part of the progress curve. […]

pro-FSAP in human plasma = target: T1, pro-FSAP in human plasma (Homo sapiens, UniProt Q14520); assay: Immunocapture of pro-FSAP from plasma and conversion of pro-uPA to uPA; type: biochemical; details: hirudin plasma 1:12, 1 h at 37 °C; NNKC9/41 0–25 μM, histones 0–25 μg/mL; PNAPEP1344; three donors (Fig 4B)
T1 construct: from tissue; host or cells: human hirudin or citrate plasma from healthy donors, diluted 1:12
T1 sequence (Q14520 24-560): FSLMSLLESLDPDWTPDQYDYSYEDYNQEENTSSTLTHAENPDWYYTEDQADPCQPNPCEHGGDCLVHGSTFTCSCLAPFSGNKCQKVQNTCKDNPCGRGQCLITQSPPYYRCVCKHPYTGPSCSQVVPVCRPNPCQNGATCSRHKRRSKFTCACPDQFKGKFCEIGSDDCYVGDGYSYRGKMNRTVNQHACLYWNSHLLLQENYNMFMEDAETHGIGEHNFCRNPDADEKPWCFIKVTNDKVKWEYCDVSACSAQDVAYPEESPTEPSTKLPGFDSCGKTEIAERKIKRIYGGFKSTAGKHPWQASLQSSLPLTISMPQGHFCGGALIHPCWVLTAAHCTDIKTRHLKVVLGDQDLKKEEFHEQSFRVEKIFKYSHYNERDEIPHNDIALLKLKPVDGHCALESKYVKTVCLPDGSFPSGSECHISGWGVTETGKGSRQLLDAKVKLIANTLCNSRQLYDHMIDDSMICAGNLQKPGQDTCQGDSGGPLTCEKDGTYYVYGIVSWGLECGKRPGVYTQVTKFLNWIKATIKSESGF
Protocol: Figure 4 Comparison of different methods to measure pro-FSAP activation in plasma: (A) hirudin plasma (1:12 dilution) was incubated with histones (0–25 μg/mL), NNKC9/41, or its Ser–Ser linear control (0–25 μM) and the fluorogenic substrate turnover (Ac–Ala–Lys–Nle–Arg–AMC) was monitored. (B) From the same experiment as in (A) after 1 h incubation at 37 °C, samples were captured on anti-FSAP coated wells and the conversion of added pro-uPA to active uPA was measured by determining the turnover of the chromogenic substrate PNAPEP1344 (25 μM). (C) From the same experiment as in (A) after 1 h incubation at 37 °C, samples were captured on anti-FSAP coated wells and α2-antiplasmin antibody was used to detect the formation of FSAP−α2-antiplasmin complexes. […] In (F), the samples with MA-FSAP-570 were not analyzed since this antibody would interfere in the sandwich ELISA. […]
as §1

uPA = assay: Specificity: uPA; type: biochemical; details: uPA 20 nM; peptide 0-50 μM; PNAPEP 1344 (Fig S7)
Protocol: Fig S7. […]
µM). Pro-uPA (100 nM) and uPA (20 nM) with PNAPEP 1344 (250 µM). Factor X (50 […]
Bend, IN, USA) except plasminogen and FSAP, which were isolated in house; and pro-uPA was from Grünenthal (Stolberg, Germany). All chromogenic substrates were from Hyphen Biomed (Neuville Sur Oise, France). Experiments were carried out in TBS with Tween-20 (0.1 % wt/ vol) BSA (0.3% wt/vol) and CaCl2 (2 mM). Absorbance at 405 nm was measured over time and the enzyme activity is depicted was measured in duplicates (mean + or -range) and similar results were obtained in 3

In the case of CRGAMWMYKRC [NNKC9/41], the “peptide binding to light chain/SPD” value [1] was “very low binding”, the substrate turnover (pro-FSAP in WT/MI plasma) was “low turnover” and the pro-uPA conversion (pro-FSAP in human plasma) was “weaker than histones; also recorded: concentration-dependent effect”. The effect on activity (uPA) was “did not influence the activity”.
